What was measured:
in vivo [1] = conditions: Sprague-Dawley, rat, po, 2 mg/kg
Rattus norvegicus [2] = species: Rattus norvegicus; conditions: in vivo, iv, 0.5 mg/kg
in vivo [3] = conditions: Sprague-Dawley, rat
Rattus norvegicus [4] = species: Rattus norvegicus; conditions: in vivo, po, 2 mg/kg
Rattus norvegicus [5] = species: Rattus norvegicus; conditions: in vivo, iv, 1 mg/kg
in vivo [6] = conditions: Sprague-Dawley, rat; remark: listed apart in the source

| bioavailability (in vivo [1]) [%] | clearance (Rattus norvegicus [2]) [mL/min/kg] | half-life (in vivo [3]) [h] | AUC/dose (Rattus norvegicus [4]) [µM·kg·h/mg] | half-life (in vivo [6]) [h] | Structure (SMILES) | clearance (Rattus norvegicus [5]) [mL/min/kg] |
| --- | --- | --- | --- | --- | --- | --- |
| 39 | 33 | 0.83 | 0.46 | – | COc1cc(CCN2CCN(CC(O)c3ccc4c(c3C)COC4=O)CC2)ccc1C#N (stereo not drawn) | – |
| 81 | – | – | 1.3 | 1.4 | Cc1nc(C(O)CN2CCN(C[C@H](O)c3ccc4c(c3C)COC4=O)CC2)ccc1C#N (stereo in doubt; 35) | 25 |
| 37 | 40 | 1.3 | 0.35 | – | COc1cc(C(O)CN2CCN(CCc3ccc4c(c3C)COC4=O)CC2)ccc1C#N (stereo not drawn) | – |

Further lines, the compound ahead of its results:

| Structure (SMILES) | bioavailability (in vivo [1]) [%] | clearance (Rattus norvegicus [2]) [mL/min/kg] | half-life (in vivo [3]) [h] | AUC/dose (Rattus norvegicus [4]) [µM·kg·h/mg] | half-life (in vivo [6]) [h] | clearance (Rattus norvegicus [5]) [mL/min/kg] |
| --- | --- | --- | --- | --- | --- | --- |
| O=C1OCc2cc(CCN3CCN(C(=O)Cc4ccc(-n5cnnn5)cc4)CC3)ccc21 | – | – | – | 0.34 | – | 40 |
| COc1cc(C(O)CN2CCN(CCc3ccc4c(c3C)COC4=O)CC2)ncc1C#N (stereo not drawn) | 78 | 40 | 1.5 | 0.74 | – | – |

Source: ChEMBL document CHEMBL3612018, “Discovery of a Potent and Selective ROMK Inhibitor with Pharmacokinetic Properties Suitable for Preclinical Evaluation” (ACS Med Chem Lett, 2015)
